Values of other authors, collected in patent publication US20210338693A1, “Gel Compositions for Transdermal Delivery to Maximize Drug Concentrations in the Stratum Corneum and Serum and Methods of Use Thereof” (Viramal Limited, priority 2016, published 2021).

Details: in vivo

In the case of `C[C@]12CC[C@H]3[C@@H](CCC4=CC(=O)CC[C@@]43C)[C@@H]1CC[C@@H]2O` [Testosterone], the half-life is listed as 1.4 h.
